Experimental data from patent US10253002B2, “Compounds and methods of treating infections” (Neoculi Pty Ltd., priority 2013, dated 2019).
≈ marks a conversion by molar mass, not a printed value.

How the values were obtained:
Assay in all cases: Broth microdilution MIC, Example 7 (NCL812 and analogues)
MRSA = type: cell-based, Staphylococcus aureus
How it was run: (§1)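 Duplicates per isolate, repeated a third time if >one two-fold dilution apart. MIC50, MIC20 and range calculated per bacterial group.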

VRE = type: cell-based, Enterococcus spp.
How it was run: as §1

Escherichia coli = type: cell-based; conditions: 24 hours
Pseudomonas aeruginosa = type: cell-based; conditions: 24 hours
[1] = isolate MRSA 1, 24 hours, 1st and 2nd replicate rows
[2] = isolate MRSA 2, 24 hours, 1st and 2nd replicate rows
[3] = isolate VRE 1, 24 hours, 1st and 2nd replicate rows
[4] = isolate VRE 2, 24 hours, 1st and 2nd replicate rows
[5] = MRSA 1, 24 hours, duplicate lines per compound
[6] = MRSA 2, 24 hours, duplicate lines per compound
[7] = VRE 1, 24 hours, duplicate lines per compound
[8] = VRE 2, 24 hours, duplicate lines per compound
[9] = E. coli, duplicate lines per compound
[10] = P. aeruginosa, duplicate lines per compound

| MIC (μg/ml) at 24 hours, MRSA 1 (MRSA; [1]) | MIC (μg/ml) at 24 hours, MRSA 2 (MRSA; [2]) | MIC (μg/ml) at 24 hours, VRE 1 (VRE; [3]) | MIC (μg/ml) at 24 hours, VRE 2 (VRE; [4]) | MIC (μg/ml) at 24 hours, E. coli (Escherichia coli; 1st and 2nd replicate rows) | MIC (μg/ml) at 24 hours, P. aeruginosa (Pseudomonas aeruginosa; 1st and 2nd replicate rows) | MIC (μg/ml) at 24 hours, MRSA 1 (MRSA; [5]) | MIC (μg/ml) at 24 hours, MRSA 2 (MRSA; [6]) | MIC (μg/ml) at 24 hours, VRE 1 (VRE; [7]) | MIC (μg/ml) at 24 hours, VRE 2 (VRE; [8]) | MIC (μg/ml) at 24 hours, E. coli (Escherichia coli; [9]) | MIC (μg/ml) at 24 hours, P. aeruginosa (Pseudomonas aeruginosa; [10]) | Compound | further results |
| --- | --- | --- | --- | --- | --- | --- | --- | --- | --- | --- | --- | --- | --- |
| >128 µg/mL | >128 µg/mL | >128 µg/mL | >128 µg/mL | >128 µg/mL | >128 µg/mL | – | – | – | – | – | – | Cl.N#Cc1cccc(/C=N/NC(=N)N)c1 [NCL033] | – |
| >128 µg/mL | >128 µg/mL | >128 µg/mL | >128 µg/mL | >128 µg/mL | >128 µg/mL | – | – | – | – | – | – | Cl.N=C(N)NN=Cc1cccc(F)c1 [NCL017] | – |
| >128 µg/mL | >128 µg/mL | >128 µg/mL | >128 µg/mL | >128 µg/mL | >128 µg/mL | – | – | – | – | – | – | Cl.N=C(NN=Cc1ccccc1F)NN=Cc1ccccc1F [NCL022] | – |
| – | – | – | – | – | – | >128 µg/mL | >128 µg/mL | >128 µg/mL | >128 µg/mL | >128 µg/mL | >128 µg/mL | COc1cc(C=NNC(=N)NN=Cc2cc(O)c(O)c(OC)c2)cc(O)c1O.Cl [NCL106] | – |
| >128 µg/mL | >128 µg/mL | >128 µg/mL | >128 µg/mL | >128 µg/mL | >128 µg/mL | – | – | – | – | – | – | NC(=O)N/N=C/c1cccc(C(F)(F)F)c1 [NCL067] | – |
| >128 µg/mL | >128 µg/mL | >128 µg/mL | >128 µg/mL | >128 µg/mL | >128 µg/mL | – | – | – | – | – | – | NC(=O)N/N=C/c1ccccc1Cl [NCL047] | – |

More lines, now with the values behind:

| Compound | MIC (μg/ml) at 24 hours, MRSA 1 (MRSA; [1]) | MIC (μg/ml) at 24 hours, MRSA 2 (MRSA; [2]) | MIC (μg/ml) at 24 hours, VRE 1 (VRE; [3]) | MIC (μg/ml) at 24 hours, VRE 2 (VRE; [4]) | MIC (μg/ml) at 24 hours, E. coli (Escherichia coli; 1st and 2nd replicate rows) | MIC (μg/ml) at 24 hours, P. aeruginosa (Pseudomonas aeruginosa; 1st and 2nd replicate rows) | MIC (μg/ml) at 24 hours, MRSA 1 (MRSA; [5]) | MIC (μg/ml) at 24 hours, MRSA 2 (MRSA; [6]) | MIC (μg/ml) at 24 hours, VRE 1 (VRE; [7]) | MIC (μg/ml) at 24 hours, VRE 2 (VRE; [8]) | MIC (μg/ml) at 24 hours, E. coli (Escherichia coli; [9]) | MIC (μg/ml) at 24 hours, P. aeruginosa (Pseudomonas aeruginosa; [10]) | further results |
| --- | --- | --- | --- | --- | --- | --- | --- | --- | --- | --- | --- | --- | --- |
| CCCC(=NNC(=N)NN=C(CCC)c1ccc(Cl)cc1)c1ccc(Cl)cc1.Cl [NCL 156] | – | – | – | – | – | – | >128 µg/mL | >128 µg/mL | >128 µg/mL | >128 µg/mL | >128 µg/mL | >128 µg/mL | – |
| CCO/C(N)=N/N=C(\C)c1ccc(Cl)cc1 [NCL 162] | – | – | – | – | – | – | >128 µg/mL | 128 µg/mL (≈ 534 µM) | >128 µg/mL | >128 µg/mL | >128 µg/mL | >128 µg/mL | – |
| CCNC(=O)N(/N=C/c1ccc(Cl)cc1)C(N)=N/N=C/c1ccc(Cl)cc1 [NCL226] | – | – | – | – | – | – | – | – | – | – | – | – | MIC (μg/ml) at 24 hours, MRSA 1 (MRSA; MRSA 1, 24 hours): >128 µg/mL; MIC (μg/ml) at 24 hours, MRSA 2 (MRSA; MRSA 2, 24 hours): >128 µg/mL; MIC (μg/ml) at 24 hours, VRE 1 (VRE; VRE 1, 24 hours): >128 µg/mL; MIC (μg/ml) at 24 hours, VRE 2 (VRE; VRE 2, 24 hours): >128 µg/mL; MIC (μg/ml) at 24 hours, E. coli (Escherichia coli; E. coli): >128 µg/mL; MIC (μg/ml) at 24 hours, P. aeruginosa (Pseudomonas aeruginosa; P. aeruginosa): >128 µg/mL |
| CC(O)Nc1cc(Cl)ccc1C=NNC(=N)NN=Cc1ccc(Cl)cc1NC(C)O.Cl (stereo not drawn) [NCL 168] | – | – | – | – | – | – | 32 µg/mL | 32 µg/mL | 64 µg/mL | 32 µg/mL | >128 µg/mL | >128 µg/mL | – |
| Cl.N=C(NN=Cc1cccnc1N)NN=Cc1cccnc1N [NCL 176] | – | – | – | – | – | – | – | – | – | – | – | – | MIC (μg/ml) at 24 hours, MRSA 1 (MRSA; MRSA 1, 24 hours): >128 µg/mL; MIC (μg/ml) at 24 hours, MRSA 2 (MRSA; MRSA 2, 24 hours): >128 µg/mL; MIC (μg/ml) at 24 hours, VRE 1 (VRE; VRE 1, 24 hours): >128 µg/mL; MIC (μg/ml) at 24 hours, VRE 2 (VRE; VRE 2, 24 hours): >128 µg/mL; MIC (μg/ml) at 24 hours, E. coli (Escherichia coli; E. coli): >128 µg/mL; MIC (μg/ml) at 24 hours, P. aeruginosa (Pseudomonas aeruginosa; P. aeruginosa): >128 µg/mL |
| NC(=N/N=C/c1ccc(Cl)cc1)N(/N=C/c1ccc(Cl)cc1)C(=O)NCc1ccco1 [NCL229] | – | – | – | – | – | – | – | – | – | – | – | – | MIC (μg/ml) at 24 hours, MRSA 1 (MRSA; MRSA 1, 24 hours): >128 µg/mL; MIC (μg/ml) at 24 hours, MRSA 2 (MRSA; MRSA 2, 24 hours): >128 µg/mL; MIC (μg/ml) at 24 hours, VRE 1 (VRE; VRE 1, 24 hours): >128 µg/mL; MIC (μg/ml) at 24 hours, VRE 2 (VRE; VRE 2, 24 hours): >128 µg/mL; MIC (μg/ml) at 24 hours, E. coli (Escherichia coli; E. coli): >128 µg/mL; MIC (μg/ml) at 24 hours, P. aeruginosa (Pseudomonas aeruginosa; P. aeruginosa): >128 µg/mL |
| Cl.N=C(NN=CC(=Cc1ccccc1)c1ccccc1)NN=CC(=Cc1ccccc1)c1ccccc1 [NCL 138] | – | – | – | – | – | – | >128 µg/mL | 32 µg/mL | >128 µg/mL | >128 µg/mL | >128 µg/mL | >128 µg/mL | – |
